Results: ChEMBL document CHEMBL3875179 (Eur J Med Chem, 2016)

Columns and labels:
[1] = target: Cholinesterase (Equus caballus) (UniProt P81908); test: Inhibition of equine serum BChE using butyrylthiocholine iodide as substrate at 10^-4 M preincubated for 15 mins followed by substrate addition and measured for 5 mins by Ellmans method
[2] = target: Cholinesterase (Equus caballus) (UniProt P81908); test: Inhibition of equine serum BChE using butyrylthiocholine iodide as substrate at 10^-3 M preincubated for 15 mins followed by substrate addition and measured for 5 mins by Ellmans method
Acetylcholinesterase = Acetylcholinesterase (Electrophorus electricus, UniProt O42275); test: Inhibition of electric eel AChE using acetylthiocholine iodide as substrate preincubated for 15 mins followed by substrate addition and measured for 5 mins by Ellmans method
[3] = Cytotoxicity against mouse NIH/3T3 cells after 24 hrs by MTT assay; assay type: toxicity, NIH3T3
[4] = Selectivity index, ratio of IC50 for mouse NIH/3T3 cells to IC50 for electric eel AChE

Sequence of Cholinesterase (Equus caballus) (P81908 whole entry): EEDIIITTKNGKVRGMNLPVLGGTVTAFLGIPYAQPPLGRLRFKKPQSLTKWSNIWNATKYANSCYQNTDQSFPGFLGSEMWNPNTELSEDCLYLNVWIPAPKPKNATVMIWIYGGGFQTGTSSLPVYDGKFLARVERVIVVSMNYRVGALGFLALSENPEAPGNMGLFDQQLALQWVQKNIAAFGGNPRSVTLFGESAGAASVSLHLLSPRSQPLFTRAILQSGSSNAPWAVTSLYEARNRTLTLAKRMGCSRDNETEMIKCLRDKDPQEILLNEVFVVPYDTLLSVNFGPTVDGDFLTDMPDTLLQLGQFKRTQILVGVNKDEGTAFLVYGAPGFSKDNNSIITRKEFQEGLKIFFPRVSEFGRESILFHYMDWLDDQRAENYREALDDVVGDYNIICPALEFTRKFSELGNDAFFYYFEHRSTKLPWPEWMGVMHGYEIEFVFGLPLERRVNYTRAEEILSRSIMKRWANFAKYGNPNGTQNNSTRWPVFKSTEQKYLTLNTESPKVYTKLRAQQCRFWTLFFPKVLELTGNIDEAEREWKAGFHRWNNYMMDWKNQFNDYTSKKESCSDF
Sequence of Acetylcholinesterase (O42275 whole entry): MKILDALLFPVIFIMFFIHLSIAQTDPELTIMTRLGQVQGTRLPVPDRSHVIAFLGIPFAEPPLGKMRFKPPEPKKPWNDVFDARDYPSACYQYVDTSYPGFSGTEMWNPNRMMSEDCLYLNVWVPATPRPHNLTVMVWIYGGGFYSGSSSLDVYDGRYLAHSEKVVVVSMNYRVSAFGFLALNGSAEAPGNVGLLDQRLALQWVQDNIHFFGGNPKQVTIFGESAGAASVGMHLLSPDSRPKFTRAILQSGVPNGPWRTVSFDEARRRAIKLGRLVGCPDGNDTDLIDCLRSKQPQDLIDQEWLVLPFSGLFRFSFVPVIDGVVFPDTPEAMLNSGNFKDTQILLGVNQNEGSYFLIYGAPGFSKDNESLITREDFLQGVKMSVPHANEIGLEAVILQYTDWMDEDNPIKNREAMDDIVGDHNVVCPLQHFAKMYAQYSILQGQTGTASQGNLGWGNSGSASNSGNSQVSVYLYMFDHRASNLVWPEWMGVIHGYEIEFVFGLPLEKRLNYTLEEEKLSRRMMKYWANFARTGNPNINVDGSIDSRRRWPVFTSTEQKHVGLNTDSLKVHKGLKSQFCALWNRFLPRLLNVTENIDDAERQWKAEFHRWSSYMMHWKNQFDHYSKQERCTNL

Row | SMILES | inhibition [1] [%] | inhibition [2] [%] | IC50 (Acetylcholinesterase) [µM] | IC50 at 24 h [3] [µM] | Ratio IC50 [4]
1 | COc1ccc2nc(NC(=O)CN3CCC(CC4Cc5cc(OC)c(OC)cc5C4=O)CC3)sc2c1 (configuration not stated) | 3.19 | 5.33 |  |  | 
2 | CCN1CCN(c2ccc(/C=C3/Cc4ccc(OC)cc4C3=O)cc2)CC1 | 4.2 | 5.05 |  |  | 
3 | COc1ccc2c(c1)C/C(=C/c1ccc(N3CCN(CCN(C)C)CC3)cc1)C2=O | 9.56 | 15.2 |  |  | 
4 | COc1cc2c(cc1OC)C(=O)C(CC1CCN(CC(=O)Nc3ccccc3)CC1)C2 (configuration not stated) | 2.58 | 5 |  |  | 
5 | COc1ccc2c(c1)C(=O)/C(=C\c1ccc(N3CCN(CCO)CC3)cc1)C2 | 1.25 | 3.45 |  |  | 
6 | COc1cc2c(cc1OC)C(=O)C(CC1CCN(CC(=O)Nc3ccc([N+](=O)[O-])cc3)CC1)C2 (configuration not stated) | 2.69 | 4.88 |  |  | 
7 | COc1cc2c(cc1OC)C(=O)C(CC1CCN(CC(=O)Nc3nc4ccc([N+](=O)[O-])cc4s3)CC1)C2 (configuration not stated) | 1.13 | 4.18 |  |  | 
8 | COc1cc2c(cc1OC)C(=O)C(CC1CCN(CC(=O)Nc3nc4ccc(Cl)cc4s3)CC1)C2 (configuration not stated) | 3.09 | 6.21 |  |  | 
9 | COc1ccc2c(c1)C/C(=C/c1ccc(N3CCN(CCO)CC3)cc1)C2=O | 5.91 | 7.63 |  |  | 
10 | COc1ccc2c(c1)C/C(=C/c1ccc(N3CCN(C)CC3)cc1)C2=O | 7.56 | 12.9 |  |  | 
11 | COc1cc2c(cc1OC)C(=O)C(CC1CCN(CC(=O)Nc3nc4cc(OC)c(OC)cc4s3)CC1)C2 (configuration not stated) | 2.05 | 3.77 |  |  | 
12 | COc1cc2c(cc1OC)C(=O)C(CC1CCN(CC(=O)Nc3ccc(F)cc3)CC1)C2 (configuration not stated) | 1.99 | 4.75 |  |  | 
13 | COc1cc2c(cc1OC)C(=O)/C(=C\c1ccc(N3CCN(CCCN(C)C)CC3)cc1)C2 | 13.9 | 18.7 | 4.89 | 78 | 
14 | COc1ccc(NC(=O)CN2CCC(CC3Cc4cc(OC)c(OC)cc4C3=O)CC2)cc1OC (configuration not stated) | 1.29 | 5.85 |  |  | 
15 | CCN(CC)c1ccc(/C=C2/Cc3ccc(OC)cc3C2=O)cc1 | 1.65 | 2.8 |  |  | 
16 | CCN1CCN(c2ccc(/C=C3/Cc4cc(OC)ccc4C3=O)cc2)CC1 | 8.77 | 15.1 |  |  | 
17 | COc1ccc2c(c1)C(=O)/C(=C\c1ccc(N3CCN(c4ccccc4)CC3)cc1)C2 | 1.06 | 1.73 |  |  | 
18 | COc1ccc2c(c1)C/C(=C/c1ccc(N3CCCC3)cc1)C2=O | 1.25 | 3.08 |  |  | 
19 | CCN1CCN(c2ccc(/C=C3/Cc4cc(OC)c(OC)cc4C3=O)cc2)CC1 | 8.56 | 16.9 |  |  | 

Row | SMILES | inhibition [1] [%] | inhibition [2] [%] | IC50 (Acetylcholinesterase) [µM] | IC50 at 24 h [3] [µM] | Ratio IC50 [4]
20 | COc1cc2c(cc1OC)C(=O)C(CC1CCN(CC(=O)Nc3nc4ccc(F)cc4s3)CC1)C2 (configuration not stated) | 3.1 | 4.89 |  |  | 
21 | COc1cc2c(cc1OC)C(=O)C(CC1CCN(CC(=O)Nc3ccc(C)cc3)CC1)C2 (configuration not stated) | 3.2 | 5.89 |  |  | 
22 | COc1cc2c(cc1OC)C(=O)/C(=C\c1ccc(N3CCN(CCN(C)C)CC3)cc1)C2 | 12.1 | 17 | 6.38 | 320 | 50
23 | COc1ccc2c(c1)C(=O)/C(=C\c1ccc(N3CCN(CCCN(C)C)CC3)cc1)C2 | 10.1 | 16.1 | 6.06 | 78 | 13
24 | COc1cc2c(cc1OC)C(=O)C(CC1CCN(CC(=O)Nc3ccc(Cl)cc3)CC1)C2 (configuration not stated) | 2.77 | 5.39 |  |  | 
25 | COc1ccc2c(c1)C/C(=C/c1ccc(N3CCN(c4ccccc4)CC3)cc1)C2=O | 2.38 | 5.2 |  |  | 
26 | COc1ccc2c(c1)C(=O)/C(=C\c1ccc(N3CCCC3)cc1)C2 | 3.18 | 5.7 |  |  | 
27 | COc1ccc2c(c1)C(=O)/C(=C\c1ccc(N3CCN(CCN(C)C)CC3)cc1)C2 | 10.6 | 17.2 |  |  | 
28 | COc1ccc(NC(=O)CN2CCC(CC3Cc4cc(OC)c(OC)cc4C3=O)CC2)cc1 (configuration not stated) | 1.33 | 4.28 |  |  | 
29 | CCN(CC)c1ccc(/C=C2/Cc3cc(OC)c(OC)cc3C2=O)cc1 | 1.96 | 3.76 |  |  | 
30 | COc1ccc2c(c1)C(=O)/C(=C\c1ccc(N3CCN(C)CC3)cc1)C2 | 9.63 | 14.7 |  |  | 
31 | COc1cc2c(cc1OC)C(=O)C(CC1CCN(CC(=O)Nc3nc4ccccc4s3)CC1)C2 (configuration not stated) | 2.31 | 5.23 |  |  | 
32 | COc1ccc2c(c1)C/C(=C/c1ccc(N3CCN(CCCN(C)C)CC3)cc1)C2=O | 11.3 | 16 | 8.54 | 230 | 27
33 | COc1cc2c(cc1OC)C(=O)/C(=C\c1ccc(N3CCN(CCO)CC3)cc1)C2 | 7.55 | 18.2 |  |  | 
34 | COc1cc2c(cc1OC)C(=O)/C(=C\c1ccc(N3CCN(C)CC3)cc1)C2 | 8.55 | 19.2 |  |  | 
35 | COc1cc2c(cc1OC)C(=O)/C(=C\c1ccc(N3CCCC3)cc1)C2 | 2.77 | 4.98 |  |  | 
36 | CCN(CC)c1ccc(/C=C2/Cc3cc(OC)ccc3C2=O)cc1 | 5.27 | 10.3 |  |  | 
37 | COc1cc2c(cc1OC)C(=O)/C(=C\c1ccc(N3CCN(c4ccccc4)CC3)cc1)C2 | 1.08 | 3.22 |  |  | 
38 | COc1cc2c(cc1OC)C(=O)C(CC1CCN(CC(=O)Nc3nc4ccc(C)cc4s3)CC1)C2 (configuration not stated) | 2.08 | 4.29 |  |  | 
